Legend:
[1] = test system: Factor IX deficient plasma; assay: coagulant activity of XIa-activated IXa proteins; type: biochemical
factor X = factor X (Homo sapiens, UniProt P00742); assay: factor X activation in complete intrinsic Tenase system (IXa, Ca2+, phospholipid, VIIIa); type: biochemical; set-up: Normal human plasma factor IX (IXNP) and factor X were isolated as described in Bajaj and Birktoft; from tissue; host or cells: human plasma (factor X); factor VIII obtained from Dr. Leon Hoyer, American Red Cross; settings: 70 pM VIIIa, 0.5 nM IXa, 15 nM X, phospholipid present
Procedure: The ability of each activated mutant to activate factor X in the presence and absence of phospholipid and factor VIIIa was determined as follows. The activation was carried out at 37° C. in a 50 μl reaction volume, in TBS/BSA pH 7.4, for various time periods. At the end of the incubation time period, each reaction mixture received 1 μl of 0.5 M EDTA to stop further generation of factor Xa. A 40 μL aliquot was then added to 0.1 ml quartz cuvette containing S-2222 in 75 μL of TBS/BSA, pH 7.4. The final concentration of S-2222 was 100 μM. The p-nitroaniline release was measured continuously (ΔA405/min) for up to 20 min (Sabharwal et al., 1995 supra; Sabharwal et al., 1997, supra). Factor Xa generated was calculated from a standard curve constructed using factor Xa prepared from insolubilized Russell's viper venom.
Factor X activation measurements were made under four experimental regimes. In one, Ca^2+ and phospholipid were present. In this system activation was carried out for 5–15 minutes and the concentration of each IXa protein was 20 nM, phospholipid was 25 μM, and factor X was 100 nM. In the second regime, Ca^2+, phospholipid and factor VIIIa were present. […] In the third regime, only Ca^2+ was present. Here, activation was carried out for 2–20 min and concentration of each IXa protein was 400 nM and factor X was 1 μM. Finally, in the fourth regime, Ca^2+ and VIIIa were present. Here, activation was carried out for 15–120 sec and the concentration of each IXa protein was 2 μM, VIIIa was 14 nM, and factor X was 400 nM.
In all of the above factor X activation experiments, the incubation times chosen were those in which the factor Xa generated was always less than 10 nM. This precautionary measure was taken to prevent activation of factor X by the generated factor Xa (see, e.g., Link. and Castellino, 1982, Arch Biochem. Biophys. 215, 215–221). Further, in those incubation mixtures which contained […], control experiments were also performed in which factor VIIIa was omitted. […] In the presence of factor VIIIa, 10 μM phospholipid was used based upon previous observations (Mathur et al., 1997, supra; van Dieijen et al., 1981, J. Biol. Chem. 256, 3433–3442). The concentrations of factor X selected for each set of reaction conditions are those which are below or at the Km values (van Dieijen et al., supra; Fay and Koshibu, 1998, J Biol. Chem. 273, 19049–19054). In this region of the Michaelis-Menton curve, the rate of formation of factor Xa is proportional to the substrate factor X and therefore to the affinity of the factor IXa enzyme for factor X.
Next, the activation of factor X in a complete intrinsic Tenase system (IXa, Ca^2+, phospholipid, VIIIa) was studied.

Chain of factor X (P00742 183-488 limits assumed): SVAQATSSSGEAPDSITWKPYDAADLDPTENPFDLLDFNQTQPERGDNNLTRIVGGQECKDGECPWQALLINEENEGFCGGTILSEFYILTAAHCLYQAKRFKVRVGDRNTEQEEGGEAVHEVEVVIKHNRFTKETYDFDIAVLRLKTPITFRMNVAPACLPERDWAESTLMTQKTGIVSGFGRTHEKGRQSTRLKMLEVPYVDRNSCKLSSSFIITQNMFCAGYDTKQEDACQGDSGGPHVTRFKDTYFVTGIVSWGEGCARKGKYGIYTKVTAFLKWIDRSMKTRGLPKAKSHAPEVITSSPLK
Chain of factor X (P00742 41-179 limits assumed): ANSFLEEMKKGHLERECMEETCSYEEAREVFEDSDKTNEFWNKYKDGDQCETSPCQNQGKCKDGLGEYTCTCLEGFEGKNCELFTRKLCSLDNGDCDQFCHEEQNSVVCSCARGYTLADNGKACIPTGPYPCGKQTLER
Chain of factor X (P00451 20-759 partner limits assumed): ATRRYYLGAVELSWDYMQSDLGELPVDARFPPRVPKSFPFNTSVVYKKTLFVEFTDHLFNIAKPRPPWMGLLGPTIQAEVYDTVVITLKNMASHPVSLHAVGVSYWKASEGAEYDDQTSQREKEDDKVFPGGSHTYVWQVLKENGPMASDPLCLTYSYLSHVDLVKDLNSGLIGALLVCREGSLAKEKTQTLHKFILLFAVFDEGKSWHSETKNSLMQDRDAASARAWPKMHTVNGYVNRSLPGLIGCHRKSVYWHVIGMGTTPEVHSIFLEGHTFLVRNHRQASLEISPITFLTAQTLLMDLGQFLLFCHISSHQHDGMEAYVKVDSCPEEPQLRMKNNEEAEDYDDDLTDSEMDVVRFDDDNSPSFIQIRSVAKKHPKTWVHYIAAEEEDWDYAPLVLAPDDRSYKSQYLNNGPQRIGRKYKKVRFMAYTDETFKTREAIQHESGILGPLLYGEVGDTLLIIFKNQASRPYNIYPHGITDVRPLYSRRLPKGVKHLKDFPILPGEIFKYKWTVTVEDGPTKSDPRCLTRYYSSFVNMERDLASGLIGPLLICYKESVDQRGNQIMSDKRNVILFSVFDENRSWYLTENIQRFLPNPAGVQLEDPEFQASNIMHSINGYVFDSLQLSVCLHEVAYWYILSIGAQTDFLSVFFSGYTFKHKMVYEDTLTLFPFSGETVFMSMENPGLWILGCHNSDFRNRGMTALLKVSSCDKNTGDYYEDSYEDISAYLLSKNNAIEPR
Chain of factor X (P00451 1668-2351 partner limits assumed): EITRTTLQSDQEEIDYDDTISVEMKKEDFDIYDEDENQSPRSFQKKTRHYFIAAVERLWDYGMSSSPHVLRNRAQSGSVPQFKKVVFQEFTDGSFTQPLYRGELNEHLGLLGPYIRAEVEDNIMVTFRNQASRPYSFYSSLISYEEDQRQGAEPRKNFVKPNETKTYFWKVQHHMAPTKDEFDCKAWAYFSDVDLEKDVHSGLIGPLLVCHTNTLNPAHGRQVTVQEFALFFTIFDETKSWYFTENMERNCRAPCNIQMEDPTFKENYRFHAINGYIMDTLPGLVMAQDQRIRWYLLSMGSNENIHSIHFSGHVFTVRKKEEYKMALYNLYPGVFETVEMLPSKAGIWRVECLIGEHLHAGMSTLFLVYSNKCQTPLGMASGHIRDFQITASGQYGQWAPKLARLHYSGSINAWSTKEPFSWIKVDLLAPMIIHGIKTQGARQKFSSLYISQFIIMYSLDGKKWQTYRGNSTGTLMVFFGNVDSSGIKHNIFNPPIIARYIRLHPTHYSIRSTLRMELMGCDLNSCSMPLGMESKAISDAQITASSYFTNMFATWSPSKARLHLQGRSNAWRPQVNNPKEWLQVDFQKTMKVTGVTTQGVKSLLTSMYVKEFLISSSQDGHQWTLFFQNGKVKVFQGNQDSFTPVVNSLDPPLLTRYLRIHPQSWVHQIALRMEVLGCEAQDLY

“IXaV331A: activated factor IX mutant V331A” was tested, and the “coagulant activity as compared to IXaNP” value [1] was roughly 6% and the “X-activation rate, PL-plus system” value (factor X) was 0.55 ± 0.04 nM/min.

Reference: patent publication US7109170B2, “Region of factor IXa protease domain that interacts with factor VIIIa and methods therefor” (Saint Louis University, priority 1999, dated 2006)
